Measured values from patent US20260053861A1, “CELL COMPOSITIONS AND METHODS OF USING THE SAME” (THE REGENTS OF THE UNIVERSITY OF CALIFORNIA, priority 2022, published 2026).
Counter-ions that a name gives are not always drawn.

Each compound was assayed on hPSC-SCs. Details: not given.

Going from CC(C)(C)CC(C)(C)c1ccc(OCCOCC[N+](C)(C)Cc2ccccc2)cc1 [Benzethonium chloride] to CN1CC[C@]23c4ccccc4N[C@H]1[C@]21CCN(C)[C@H]3Nc2ccccc21 [Calycanthine], the z.score.t rises from −1.091 to 0.4849.

Compared with CC[C@H](CC[C@@H](C)[C@H]1CC[C@H]2[C@@H]3CC=C4C[C@@H](O)CC[C@]4(C)[C@H]3CC[C@]12C)C(C)C [Beta-sistosterol], C[C@@]12C(=O)OC(=O)[C@]1(C)[C@H]1CC[C@@H]2O1 [Cantharidin] is lower in z.score.t: 0.1543 for the first, −2.175 for the second.

Going from CN1CCc2cc3c(cc2[C@H]1[C@@H]1OC(=O)c2c1ccc1c2OCO1)OCO3 [Bicuculline (+)] to COc1cc2c(cc1O)C[C@H]1c3c(cc(O)c(OC)c3-2)CCN1C [Boldine], the z.score.t rises from 0.5437 to 0.767.

Going from CCCCOC(=O)c1ccc(O)cc1 [Butylparaben] to CCCC(C)(COC(N)=O)COC(=O)NC(C)C (stereo not shown) [Carisoprodol], the z.score.t rises from −0.2359 to 0.425.

Compared with NC(N)=NOCC[C@H](N)C(=O)O.O.O=S(=O)(O)O [Canavanine sulfate monohydrate (L, +)], CCC1=C[C@@H]2CN3CCc4c([nH]c5ccccc45)[C@@](C(=O)OC)(C2)[C@@H]13 [Catharanthine] is lower in z.score.t: 1.095 for the first, 0.2625 for the second.

Same assay, conditions: HTS viability of hPSC-SCs in the presence of 30 mM glucose; Prestwick library; Table S4

Compared with CC(Cc1cccc(C(F)(F)F)c1)NCCOC(=O)c1ccccc1 (stereo not shown) [Benfluorex hydrochloride], CN(C)CCCOc1nn(Cc2ccccc2)c2ccccc12 [Benzydamine hydrochloride] is lower in z.score.t: 1.095 for the first, −1.272 for the second.

Going from C/C(=C(\CCOP(=O)(O)O)SC(=O)c1ccccc1)N(C=O)Cc1cnc(C)nc1N [Benfotiamine] to CCCCNc1cc(C(=O)O)cc(S(N)(=O)=O)c1Oc1ccccc1 [Bumetanide], the z.score.t rises from −0.1239 to 1.181.

First: CCCCOc1cc(C(=O)OCCN(CC)CC)ccc1N [Benoxinate hydrochloride]
Second: CCCCN(CCCC)CCCOC(=O)c1ccc(N)cc1 [Butacaine]
The z.score.t of the first is higher: 0.05523 for the first, −0.3023 for the second.

First: O=C(CCCN1CCC(n2c(O)nc3ccccc32)CC1)c1ccc(F)cc1 [Benperidol]
Second: O=C(CCCN1CCC(O)(c2ccc(Br)cc2)CC1)c1ccc(F)cc1 [Bromperidol]
The z.score.t of the first is lower: 0.1556 for the first, 1.239 for the second.

Going from NC(CO)C(=O)NNCc1ccc(O)c(O)c1O (stereo not shown) [Benserazide hydrochloride] to O=C(O)/C=C/c1ccc(O)c(O)c1 [Caffeic acid], the z.score.t rises from −0.2359 to 0.9865.

Going from NC(=NCc1ccccc1)NC(=O)c1nc(Cl)c(N)nc1N [Benzamil hydrochloride] to NS(=O)(=O)c1cc2c(cc1Cl)N=C(CSCc1ccccc1)NS2(=O)=O [Benzthiazide], the z.score.t rises from −1.515 to 0.3022.

First: CC1(C)S[C@@H]2[C@H](NC(=O)Cc3ccccc3)C(=O)N2[C@H]1C(=O)O.CC1(C)S[C@@H]2[C@H](NC(=O)Cc3ccccc3)C(=O)N2[C@H]1C(=O)O.c1ccc(CNCCNCc2ccccc2)cc1 [Benzathine benzylpenicillin]
Second: CC1(C)S[C@@H]2[C@H](NC(=O)Cc3ccccc3)C(=O)N2[C@H]1C(=O)O [Benzylpenicillin sodium]
The z.score.t of the first is higher: −0.08998 for the first, −1.3 for the second.

Compared with CCOC(=O)c1ccc(N)cc1 [Benzocaine], CCCCOC(=O)c1ccc(N)cc1 [Butamben] is higher in z.score.t: −0.8317 for the first, 0.8465 for the second.

Going from CCCCNc1ccc(C(=O)OCCOCCOCCOCCOCCOCCOCCOCCOCCOC)cc1 [Benzonatate] to CCN(CC)CCOCCOC(=O)C1(c2ccccc2)CCCC1 [Carbetapentane citrate], the z.score.t falls from 0.6386 to 0.3024.

First: C[N+](C)(CCOc1ccccc1)Cc1ccccc1.O=C([O-])c1cc2ccccc2cc1O [Bephenium hydroxynaphthoate]
Second: CC(C)COCC(CN(Cc1ccccc1)c1ccccc1)N1CCCC1 (stereo not shown) [Bepridil hydrochloride]
The z.score.t of the first is higher: 0.5158 for the first, −0.5726 for the second.

Going from COc1ccc2cc3[n+](cc2c1OC)CCc1cc2c(cc1-3)OCO2 [Berberine chloride] to CC[C@@]1(O)C(=O)OCc2c1cc1n(c2=O)Cc2cc3ccccc3nc2-1 [Camptothecine (S, +)], the z.score.t falls from 1.018 to −1.163.

Going from COc1c(O)cc2c(c1O)[C@@H]1O[C@H](CO)[C@@H](O)[C@H](O)[C@H]1OC2=O [Bergenin monohydrate] to CCCC1O[C@@H]2C[C@H]3[C@@H]4CCC5=CC(=O)C=C[C@]5(C)[C@H]4[C@@H](O)C[C@]3(C)[C@]2(C(=O)CO)O1 (stereo partly shown) [Budesonide], the z.score.t rises from 1.238 to 1.74.

First: CNCCc1ccccn1.CS(=O)(=O)O.CS(=O)(=O)O [Betahistine mesylate]
Second: CN(C)CCC(c1ccc(Br)cc1)c1ccccn1 (stereo not shown) [Brompheniramine maleate]
The z.score.t of the first is higher: −0.6301 for the first, −0.8478 for the second.

Compared with C[C@H]1C[C@H]2[C@@H]3CCC4=CC(=O)C=C[C@]4(C)[C@@]3(F)[C@@H](O)C[C@]2(C)[C@@]1(O)C(=O)CO [Betamethasone], C[C@]12CCC(=O)C=C1C=C[C@@H]1[C@@H]2CC[C@@]2(C)[C@H]1CC[C@@]2(O)CCC(=O)O [Canrenoic acid potassium salt] is lower in z.score.t: 0.8711 for the first, 0.05523 for the second.

Going from CC(C)NCC(O)COc1ccc(CCOCC2CC2)cc1 (stereo not shown) [Betaxolol hydrochloride] to CC(C)NCC(O)COc1ccc(COCCOC(C)C)cc1 (stereo not shown) [Bisoprolol fumarate], the z.score.t rises from −0.5337 to −0.1003.

First: NCCc1cc[nH]n1 [Betazole hydrochloride]
Second: NCCC(=O)NCCc1c[nH]cn1 [Carcinine]
The z.score.t of the first is higher: 1.681 for the first, 0.8711 for the second.

First: CC(C[N+](C)(C)C)OC(N)=O (stereo not shown) [Bethanechol chloride]
Second: C[N+](C)(C)CCOC(N)=O [Carbachol]
The z.score.t of the first is higher: 0.3236 for the first, −0.1239 for the second.

Going from C[N+]1(C)C[C@H](O)C[C@H]1C(=O)[O-] [Betonicine] to C[C@H](CS)C(=O)N1CCC[C@H]1C(=O)O [Captopril], the z.score.t rises from 1.194 to 2.207.

First: C=C(C)[C@@H]1CC[C@]2(CO)CC[C@]3(C)[C@H](CC[C@@H]4[C@@]5(C)CC[C@H](O)C(C)(C)[C@@H]5CC[C@]43C)[C@@H]12 [Betulin]
Second: C=C(C)[C@@H]1CC[C@]2(C(=O)O)CC[C@]3(C)[C@H](CC[C@@H]4[C@@]5(C)CC[C@H](O)C(C)(C)[C@@H]5CC[C@]43C)[C@@H]12 [Betulinic acid]
The z.score.t of the first is higher: −1.025 for the first, −1.832 for the second.

Going from CC(C)(Oc1ccc(CCNC(=O)c2ccc(Cl)cc2)cc1)C(=O)O [Bezafibrate] to Clc1ccc(CCC(Cn2ccnc2)Sc2c(Cl)cccc2Cl)cc1 (stereo not shown) [Butoconazole nitrate], the z.score.t falls from 1.266 to −1.151.

First: O=C(O)CCCC[C@@H]1SC[C@@H]2NC(=O)N[C@@H]21 [Biotin]
Second: CC1(C)[C@@H](OC(=O)CCC(=O)O)CC[C@]2(C)[C@H]3C(=O)C=C4[C@@H]5C[C@@](C)(C(=O)O)CC[C@]5(C)CC[C@@]4(C)[C@]3(C)CC[C@@H]12 [Carbenoxolone disodium salt]
The z.score.t of the first is lower: 0.2189 for the first, 1.163 for the second.

Going from OC(CCN1CCCCC1)(c1ccccc1)C1CC2C=CC1C2 (stereo not shown) [Biperiden hydrochloride] to COc1cc(OC)c(C(=O)CCCN2CCCC2)c(OC)c1 [Buflomedil hydrochloride], the z.score.t rises from 0.04918 to 0.3641.

Compared with CC(=O)Oc1ccc(C(c2ccc(OC(C)=O)cc2)c2ccccn2)cc1 [Bisacodyl], CCCCOc1ccc(CC(=O)NO)cc1 [Bufexamac] is lower in z.score.t: 0.4849 for the first, −0.6623 for the second.

CC[N+](C)(C)Cc1ccccc1Br [Bretylium tosylate] and CCN(CC)CCNC(=O)c1cc(Br)c(N)cc1OC [Bromopride] are the same in z.score.t: −0.3895 for the first, −0.3895 for the second.

Compared with CCN[C@H]1CN(CCCOC)S(=O)(=O)c2sc(S(N)(=O)=O)cc21 [Brinzolamide], COc1cc(CNC(=O)CCCC/C=C/C(C)C)ccc1O [Capsaicin] is lower in z.score.t: 0.7491 for the first, 0.03421 for the second.

Compared with CCCC(=O)Nc1ncnc2c1ncn2[C@@H]1O[C@@H]2COP(=O)(O)O[C@H]2[C@H]1OC(=O)CCC [Bucladesine sodium salt], Cc1nnc(SCC2=C(C(=O)O)N3C(=O)[C@@H](NC(=O)Cn4cnnn4)[C@H]3SC2)s1 [Cefazolin sodium salt] is lower in z.score.t: 0.7727 for the first, −0.6194 for the second.

First: CCCCN1CCCCC1C(=O)Nc1c(C)cccc1C (stereo not shown) [Bupivacaine hydrochloride]
Second: CC1=C(C(=O)O)N2C(=O)[C@@H](NC(=O)[C@H](N)c3ccc(O)cc3)[C@H]2SC1 [Cefadroxil]
The z.score.t of the first is lower: −0.3156 for the first, 0.5046 for the second.

Compared with CC(NC(C)(C)C)C(=O)c1cccc(Cl)c1 (stereo not shown) [Bupropion hydrochloride], CC(C)(C)NCC(O)COc1cccc2c1CCC(=O)N2 (stereo not shown) [Carteolol hydrochloride] is lower in z.score.t: 2.803 for the first, 1.266 for the second.

Compared with C=C1CC[C@H](O)C/C1=C/C=C1\CCC[C@]2(C)[C@@H]([C@H](C)/C=C/[C@H](C)C(C)C)CC[C@@H]12 [Calciferol], CO/N=C(\C(=O)N[C@@H]1C(=O)N2C(C(=O)O)=C(C[N+]3(C)CCCC3)CS[C@H]12)c1csc(N)n1 [Cefepime hydrochloride] is lower in z.score.t: 0.4451 for the first, −0.9926 for the second.

First: NC(=O)N1c2ccccc2C=Cc2ccccc21 [Carbamazepine]
Second: N[C@@H](C(=O)N[C@@H]1C(=O)N2C(C(=O)O)=C(Cl)CS[C@H]12)c1ccccc1 [Cefaclor]
The z.score.t of the first is higher: 0.8158 for the first, −0.7233 for the second.

First: CCOC(=O)n1ccn(C)c1=S [Carbimazole]
Second: CO[C@@]1(NC(=O)CSCC#N)C(=O)N2C(C(=O)O)=C(CSc3nnnn3C)CS[C@@H]21 [Cefmetazole sodium salt]
The z.score.t of the first is lower: −0.2276 for the first, 0.1916 for the second.

Compared with NC(=O)c1cc[n+](CC2=C(C(=O)[O-])N3C(=O)[C@@H](NC(=O)Cc4cccs4)[C@H]3SC2)cc1 [Cefalonium], Cn1nnnc1SCC1=C(C(=O)O)N2C(=O)[C@@H](NC(=O)[C@H](O)c3ccccc3)[C@H]2SC1 [Cefamandole sodium salt] is lower in z.score.t: −0.3867 for the first, −0.7376 for the second.

Compared with C=CC1=C(C(=O)O)N2C(=O)[C@@H](NC(=O)/C(=N\OCC(=O)O)c3csc(N)n3)[C@H]2SC1 [Cefixime], CCN1CCN(C(=O)N[C@@H](C(=O)N[C@@H]2C(=O)N3C(C(=O)O)=C(CSc4nnnn4C)CS[C@H]23)c2ccc(O)cc2)C(=O)C1=O [Cefoperazone dihydrate] is lower in z.score.t: 0.5046 for the first, −0.7233 for the second.
